The results in this text go back to PMC7558026, “Exploring and applying the substrate promiscuity of a C-glycosyltransferase in the chemo-enzymatic synthesis of bioactive C-glycosides” (Nature Communications, 2020).

Several values for one entry are separate records, joined by “and”; a condition that tells them apart may be missing. Equal values may be shown once.

For assay [1], the system named is AbCGT. Briefly: Effects of pH, temperature and divalent metal ions on AbCGT activity (phloretin 17 + UDP-Glc). As to conditions: for relative activity / conversion rates of Phloretin: in presence of the divalent cation or EDTA; for relative activity: relative to CK; for effect of divalent metal ion on catalytic activity of AbCGT (in words): 5 mM, phloretin (17) + UDP-Glc, 10 min. The format is biochemical, Aloe barbadensis. Here is the method:
To assay for the optimal reaction temperature, the reaction mixtures were incubated at pH 11.0 and different temperatures (15–60 °C). To test the necessity of divalent metal ions for AbCGT, BaCl2, CaCl2, CoCl2, CuCl2, FeCl2, MgCl2, MnCl2, ZnCl2, and EDTA were used individually at a final concentration of 5 mM. […] For quantification, three parallel assays were routinely carried out.

For assay [2], the target named is AbCGT (Aloe vera, UniProt A0A7G9P699). The assay is described as follows: Glycosyltransferase activity assay, purified AbCGT (wild type) with aglycon acceptors and UDP-Glc. Type of assay: biochemical, Aloe barbadensis. The following applies: aglycon acceptor with UDP-Glc, pH 7.4, 30 °C, up to 12 h; Reaction-1 to -3. Here is the method: Due to the instability of some acceptors in the buffer of pH 11.0, the reactions were performed under the physiological conditions (pH 7.4, 30 °C) to compare the catalytic activities of AbGT27 with different substrates under the same conditions. The reactions were performed at 30 °C for up to 12 h and terminated by the addition of 200 μL of ice-cold methanol. Subsequently, samples were centrifuged at 15,000 × g for 30 min to collect the supernatant, and aliquots were analyzed by HPLC-UV/ESIMS. […] The gradient programs were used for the analysis of the reactions (Supplementary Table 6). The conversion rates of the enzyme reactions were calculated from peak areas of glycosylated products and substrates as analyzed by HPLC. To facilitate inferential statistical analysis, three parallel assays were routinely performed; the means ± SD from triplicate analyses are reported here.
Sequence of AbCGT (Aloe vera, UniProt A0A7G9P699) (A0A7G9P699 entry or part of it): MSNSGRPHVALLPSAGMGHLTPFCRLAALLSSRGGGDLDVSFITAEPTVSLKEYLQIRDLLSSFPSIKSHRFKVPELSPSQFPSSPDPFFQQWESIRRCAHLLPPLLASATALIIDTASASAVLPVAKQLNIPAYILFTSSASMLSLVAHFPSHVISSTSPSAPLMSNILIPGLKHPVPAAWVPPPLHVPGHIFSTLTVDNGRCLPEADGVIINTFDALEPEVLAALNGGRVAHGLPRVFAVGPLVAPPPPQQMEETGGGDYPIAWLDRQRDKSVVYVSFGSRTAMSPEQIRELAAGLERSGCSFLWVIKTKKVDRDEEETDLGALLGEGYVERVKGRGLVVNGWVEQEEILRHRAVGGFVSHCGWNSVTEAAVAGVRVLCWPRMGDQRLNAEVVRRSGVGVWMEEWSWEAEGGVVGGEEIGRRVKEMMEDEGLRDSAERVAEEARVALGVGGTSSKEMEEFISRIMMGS

Regarding `[Ba+2].[Cl-].[Cl-]` [Ba2+], the relative activity with AbCGT [1] (reaction-1) stood at 119.8; in the assay with AbCGT [1] (reaction-2), 122.9; in the assay on AbCGT [1] (reaction-3), 119.3. The “conversion rates of Phloretin” value with AbCGT [1] (reaction-1) was 62; in the assay on AbCGT [1] (reaction-2), 63.6; with AbCGT [1] (reaction-3) it was 61.7.

Regarding `[Ba+2].[Cl-].[Cl-]` [Ba^2+], the “effect of divalent metal ion on catalytic activity of AbCGT (in words)” value (“effect of divalent metal ion” for short) in the assay with AbCGT [1] is listed as “greatly enhanced the catalytic activity of AbCGT”.

With `[Ca+2].[Cl-].[Cl-]` [Ca2+], the results for the relative activity with AbCGT [1] (reaction-1), with AbCGT [1] (reaction-2) and with AbCGT [1] (reaction-3) were 149.8, 161.0 and 139.4, respectively. For the same compound, the results for the “conversion rates of Phloretin” value with AbCGT [1] (reaction-1), with AbCGT [1] (reaction-2) and in the assay on AbCGT [1] (reaction-3) were 77.5, 83.3 and 72.1, respectively.

For the compound `[Ca+2].[Cl-].[Cl-]` [Ca^2+], the “effect of divalent metal ion” value in the assay with AbCGT [1] was “greatly enhanced the catalytic activity of AbCGT”.

In the case of `[Co+2]` [Co2+], the figures for the relative activity in the assay with AbCGT [1] (reaction-1), with AbCGT [1] (reaction-2) and with AbCGT [1] (reaction-3) were 36.5, 41.0 and 43.9, respectively. For the same compound, the entries for the “conversion rates of Phloretin” value in the assay with AbCGT [1] (reaction-1), in the assay on AbCGT [1] (reaction-2) and with AbCGT [1] (reaction-3) were 18.9, 21.2 and 22.7, respectively.

`Cc1cc(O)cc(O)c1C=O` [Compound 8]: at AbCGT [2], the “conversion rates, O,N,S-glycosylation” value is on record as 0%; the “conversion rates, di-C-glycosylation” value worked out at 0%; the “conversion rates, mono-C-glycosylation” value was 86.7% and 87.5% and 90.2%.

Take `CC(=O)c1c(C)cc(O)cc1O` [Compound 9]: on AbCGT [2], the “conversion rates, O,N,S-glycosylation” value is given as 0%; the “conversion rates, di-C-glycosylation” value is 0%; the “conversion rates, mono-C-glycosylation” value is 45.2% and 41.8% and 43%.

`O=Cc1c(O)cc(O)cc1O` [Compound 10]: at AbCGT [2], the “conversion rates, O,N,S-glycosylation” value was found to be 0%; the “conversion rates, di-C-glycosylation” value amounted to 100%; the “conversion rates, mono-C-glycosylation” value came out at 0%.

In the case of `CC(=O)c1c(O)cc(O)c(C(C)=O)c1O` [Compound 12], at AbCGT [2], the “conversion rates, O,N,S-glycosylation” value is reported as 0%; the “conversion rates, di-C-glycosylation” value was determined as 0%; the “conversion rates, mono-C-glycosylation” value is on record as 100%.

Regarding `COc1cc(OC)c(C(C)=O)c(OC)c1` [Compound 15], on AbCGT [2], the “conversion rates, O,N,S-glycosylation” value turned out to be 0%; the “conversion rates, di-C-glycosylation” value is recorded as 0%; the “conversion rates, mono-C-glycosylation” value is reported as 0%.

As for `CCCCC(=O)c1c(O)cc(O)cc1O` [Compound 16], on AbCGT [2], the “conversion rates, O,N,S-glycosylation” value is given as 0%; the “conversion rates, di-C-glycosylation” value was found to be 100%; the “conversion rates, mono-C-glycosylation” value was determined as 0%.

`O=C(OCCCc1ccccc1)c1c(O)cc(O)cc1O` [Compound 18]: at AbCGT [2], the “conversion rates, O,N,S-glycosylation” value came out at 0%; the “conversion rates, di-C-glycosylation” value is 93.8% and 92% and 91.6%; the “conversion rates, mono-C-glycosylation” value is 3.2% and 4.7% and 4%.

`O=C(c1ccc(O)c(O)c1)c1c(O)cc(O)cc1O` [Compound 19]: on AbCGT [2], the “conversion rates, O,N,S-glycosylation” value was found to be 0%; the “conversion rates, di-C-glycosylation” value was 63% and 63.5% and 65.1%; the “conversion rates, mono-C-glycosylation” value was 37% and 36.5% and 34.9%.

Turning to `Cc1cc(=O)oc2cc(O)ccc12` [Compound 24, 7-hydroxy-4-methylcoumarin], on AbCGT [2], the “conversion rates, O,N,S-glycosylation” value was 90% and 92% and 94.8%; the “conversion rates, di-C-glycosylation” value came to 0%; the “conversion rates, mono-C-glycosylation” value turned out to be 0%.

On to `Cc1cc(=O)oc2cc(S)ccc12` [Compound 25, 7-mercapto-4-methylcoumarin], for which, at AbCGT [2], the “conversion rates, O,N,S-glycosylation” value was 87% and 86% and 85.3%; the “conversion rates, di-C-glycosylation” value turned out to be 0%; the “conversion rates, mono-C-glycosylation” value is 0%.

Take `[Cu+2]` [Cu2+]: the relative activity in the assay with AbCGT [1] (reaction-1), in the assay on AbCGT [1] (reaction-2) and in the assay on AbCGT [1] (reaction-3) was 0.0 throughout. In addition, the “conversion rates of Phloretin” value in the assay on AbCGT [1] (reaction-1), with AbCGT [1] (reaction-2) and in the assay with AbCGT [1] (reaction-3) was 0 each time.

As for `O=C(O)CN(CCN(CC(=O)O)CC(=O)O)CC(=O)O` [EDTA], the relative activity in the assay with AbCGT [1] (reaction-1) came out at 89.5; in the assay with AbCGT [1] (reaction-2), 90.9; in the assay on AbCGT [1] (reaction-3), 102.3. In addition, the “conversion rates of Phloretin” value in the assay on AbCGT [1] (reaction-1) is 46.3; in the assay with AbCGT [1] (reaction-2), 47; in the assay on AbCGT [1] (reaction-3) it was 52.9.

With `[Fe+2]` [Fe2+], the relative activity in the assay with AbCGT [1] (reaction-1) was 23.0; in the assay on AbCGT [1] (reaction-2), 24.7; in the assay with AbCGT [1] (reaction-3), 18.0. Moreover, the “conversion rates of Phloretin” value in the assay on AbCGT [1] (reaction-1) is given as 11.9; in the assay with AbCGT [1] (reaction-2), 12.8; with AbCGT [1] (reaction-3) it was 9.3.

Turning to `[Cl-].[Cl-].[Mg+2]` [Mg2+], the relative activity came to 157.2 with AbCGT [1] (reaction-1), 160.4 with AbCGT [1] (reaction-2) and 167.6 in the assay with AbCGT [1] (reaction-3). The “conversion rates of Phloretin” value with AbCGT [1] (reaction-1) was 81.3; in the assay with AbCGT [1] (reaction-2), 83; in the assay with AbCGT [1] (reaction-3) it was 86.7.

In the case of `[Cl-].[Cl-].[Mg+2]` [Mg^2+], the “effect of divalent metal ion” value in the assay with AbCGT [1] is given as “greatly enhanced the catalytic activity of AbCGT”.

For `[Cl][Mn][Cl]` [Mn2+], the values for the relative activity in the assay with AbCGT [1] (reaction-1), with AbCGT [1] (reaction-2) and with AbCGT [1] (reaction-3) were 162.4, 178.6 and 171.3, respectively. Further, the “conversion rates of Phloretin” value worked out at 84 in the assay on AbCGT [1] (reaction-1), 92.4 with AbCGT [1] (reaction-2) and 88.6 in the assay on AbCGT [1] (reaction-3).

`[Cl][Mn][Cl]` [Mn^2+]: the “effect of divalent metal ion” value in the assay with AbCGT [1] was “greatly enhanced the catalytic activity of AbCGT”.

Take `[Ni+2]` [Ni2+]: the relative activity in the assay on AbCGT [1] (reaction-1) came out at 13.7; in the assay on AbCGT [1] (reaction-2), 12.0; with AbCGT [1] (reaction-3), 15.5. For the same compound, the “conversion rates of Phloretin” value turned out to be 7.1 with AbCGT [1] (reaction-1), 6.2 in the assay with AbCGT [1] (reaction-2) and 8 in the assay on AbCGT [1] (reaction-3).

Turning to `[Zn+2]` [Zn2+], the figures for the relative activity with AbCGT [1] (reaction-1), in the assay with AbCGT [1] (reaction-2) and with AbCGT [1] (reaction-3) were 1.9, 3.9 and 1.9, respectively. Further, the entries for the “conversion rates of Phloretin” value with AbCGT [1] (reaction-1), with AbCGT [1] (reaction-2) and in the assay on AbCGT [1] (reaction-3) were 1, 2 and 1, respectively.
